Measured values: patent US8389567B2, “Compounds that modulate intracellular calcium” (Calcimedica, Inc., priority 2007, dated 2013)

What was measured:
[1] = test system: store-operated calcium entry in HEK-Zeo control cells; conditions: read-out: IC50 for inhibition of calcium entry, thapsigargin store depletion, readdition of external calcium, pre-incubation with increasing doses
Experimental: (§1) To test whether the Ca^2+ entry pathway constitutively activated by STIM 1 overexpression is pharmacologically similar to endogenous SOCE, HEK[STIM1] cells are pre-incubated with increasing doses of 2-APB and STIM1-induced Ca^2+ entry is measured.

[2] = test system: store-operated calcium entry in HEK[STIM1] cells; conditions: read-out: IC50 for inhibition of calcium entry, thapsigargin store depletion, readdition of external calcium, pre-incubation with increasing doses
Experimental: as §1

[3] = test system: STIM1-induced Ca2+ entry in HEK[STIM1] cells
Experimental: as §1

NCCOB(c1ccccc1)c1ccccc1 [Compound 2-APB, 2-aminoethoxydiphenyl borate]
IC50 [1]: 11.8 µM | IC50 [2]: 10.5 µM | effect on calcium entry at lower concentrations ([3]; absence of store depletion, lower concentrations of 2-APB (biphasic effect)): potentiated | IC50 ([3]; read-out: IC50 for inhibition of constitutive calcium entry, absence of store depletion): 10.8 µM
